ChEMBL document CHEMBL5678804 (Cancer Cell, 2011)

Experiments:
[1] = target: Tyrosine-protein kinase Mer (Homo sapiens, UniProt Q12866); experiment: Inhibition of human wild type MER using PolyEY as substrate preincubated for 2 hrs followed by ATP addition and measured every 2 mins for […] by spectrophotometric analysis
[2] = target: Tyrosine-protein kinase CSK (Homo sapiens, UniProt P41240); experiment: Inhibition of human wild type CSK using PolyEY as substrate preincubated for 2 hrs followed by ATP addition and measured every 2 mins for […] by spectrophotometric analysis
[3] = target: Tyrosine-protein kinase BTK (Homo sapiens, UniProt Q06187); experiment: Inhibition of human wild type BTK using PolyEY as substrate preincubated for 2 hrs followed by ATP addition and measured every 2 mins for […] by spectrophotometric analysis
[4] = target: Macrophage colony-stimulating factor 1 receptor (Homo sapiens, UniProt P07333); experiment: Inhibition of human wild type FMS using PolyEY as substrate preincubated for 2 hrs followed by ATP addition and measured every 2 mins for […] by spectrophotometric analysis
[5] = target: Homeodomain-interacting protein kinase 4 (Homo sapiens, UniProt Q8NE63); experiment: Inhibition of human wild type HIPK4 using RBER-IRStide as substrate preincubated for 2 hrs followed by ATP addition and measured every 2 mins for […] by spectrophotometric analysis
Chain of Homeodomain-interacting protein kinase 4 (Q8NE63 whole entry): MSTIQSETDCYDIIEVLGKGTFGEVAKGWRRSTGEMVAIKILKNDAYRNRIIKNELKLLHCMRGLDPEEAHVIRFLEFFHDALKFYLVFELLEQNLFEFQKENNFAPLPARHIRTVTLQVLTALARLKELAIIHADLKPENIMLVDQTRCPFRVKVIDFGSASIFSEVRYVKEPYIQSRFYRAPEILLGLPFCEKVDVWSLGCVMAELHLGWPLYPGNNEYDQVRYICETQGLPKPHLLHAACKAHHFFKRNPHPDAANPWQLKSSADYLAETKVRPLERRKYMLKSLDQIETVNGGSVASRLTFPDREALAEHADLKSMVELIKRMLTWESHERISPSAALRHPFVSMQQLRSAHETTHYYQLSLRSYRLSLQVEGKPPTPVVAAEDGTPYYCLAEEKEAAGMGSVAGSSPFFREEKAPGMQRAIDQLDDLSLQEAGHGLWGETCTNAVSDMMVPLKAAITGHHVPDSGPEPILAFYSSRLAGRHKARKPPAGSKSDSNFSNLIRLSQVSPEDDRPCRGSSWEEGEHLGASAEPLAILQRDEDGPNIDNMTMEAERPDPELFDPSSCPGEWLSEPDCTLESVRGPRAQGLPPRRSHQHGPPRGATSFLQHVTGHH

Aurora kinase A = Aurora kinase A (Homo sapiens, UniProt O14965); experiment: Inhibition of human wild type AuroraA using bio-4xCHKT as substrate preincubated for 2 hrs followed by ATP addition and measured every 2 mins for […] by spectrophotometric analysis
Aurora kinase B = Aurora kinase B (Homo sapiens, UniProt Q96GD4); experiment: Inhibition of human wild type AuroraB using bio-4xCHKT as substrate preincubated for 2 hrs followed by ATP addition and measured every 2 mins for […] by spectrophotometric analysis
Chain of Aurora kinase B (Q96GD4 whole entry): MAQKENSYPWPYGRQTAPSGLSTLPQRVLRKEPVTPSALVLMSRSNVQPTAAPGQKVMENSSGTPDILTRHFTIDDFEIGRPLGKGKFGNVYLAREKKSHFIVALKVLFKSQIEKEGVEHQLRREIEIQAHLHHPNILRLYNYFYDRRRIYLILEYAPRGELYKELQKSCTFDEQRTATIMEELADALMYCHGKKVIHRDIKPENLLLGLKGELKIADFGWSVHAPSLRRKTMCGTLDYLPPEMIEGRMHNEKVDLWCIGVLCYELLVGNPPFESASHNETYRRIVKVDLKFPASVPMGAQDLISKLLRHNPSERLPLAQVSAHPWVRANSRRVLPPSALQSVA

Aurora kinase C = Aurora kinase C (Homo sapiens, UniProt Q9UQB9); experiment: Inhibition of human wild type AuroraC using bio-4xCHKT as substrate preincubated for 2 hrs followed by ATP addition and measured every 2 mins for […] by spectrophotometric analysis
Chain of Aurora kinase C (Q9UQB9 whole entry): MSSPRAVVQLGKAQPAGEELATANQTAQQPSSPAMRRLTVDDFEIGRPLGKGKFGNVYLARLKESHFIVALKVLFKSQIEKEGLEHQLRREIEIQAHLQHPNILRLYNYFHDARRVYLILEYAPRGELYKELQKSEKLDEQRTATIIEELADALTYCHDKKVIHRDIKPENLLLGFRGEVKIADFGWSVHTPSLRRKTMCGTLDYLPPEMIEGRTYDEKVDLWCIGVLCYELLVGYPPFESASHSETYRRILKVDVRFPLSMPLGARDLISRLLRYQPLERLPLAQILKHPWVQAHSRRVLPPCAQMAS

[6] = target: Serine/threonine-protein kinase BRSK1 (Homo sapiens, UniProt Q8TDC3); experiment: Inhibition of human wild type BRSK1 using RBER-CHKtide as substrate preincubated for 2 hrs followed by ATP addition and measured every 2 mins for […] by spectrophotometric analysis
[7] = target: Casein kinase I isoform alpha (Homo sapiens, UniProt P48729); experiment: Inhibition of human wild type CK1 alpha using Casein as substrate preincubated for 2 hrs followed by ATP addition and measured every 2 mins for […] by spectrophotometric analysis
Chain of Casein kinase I isoform alpha (P48729 whole entry, canonical isoform): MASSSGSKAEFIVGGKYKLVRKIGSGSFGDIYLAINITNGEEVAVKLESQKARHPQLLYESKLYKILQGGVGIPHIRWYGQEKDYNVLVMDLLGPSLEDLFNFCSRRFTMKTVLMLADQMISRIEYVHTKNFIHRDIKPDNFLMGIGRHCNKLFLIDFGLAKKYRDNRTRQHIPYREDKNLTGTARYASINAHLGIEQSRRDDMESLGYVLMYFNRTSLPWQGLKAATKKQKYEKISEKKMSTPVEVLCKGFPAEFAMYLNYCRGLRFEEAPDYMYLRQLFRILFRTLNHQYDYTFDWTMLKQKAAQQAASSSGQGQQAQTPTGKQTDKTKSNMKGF

[8] = target: Inhibitor of nuclear factor kappa-B kinase subunit alpha (Homo sapiens, UniProt O15111); experiment: Inhibition of human wild type IKK alpha using RBER-CHKtide as substrate preincubated for 2 hrs followed by ATP addition and measured every 2 mins for […] by spectrophotometric analysis
[9] = target: Tyrosine-protein kinase JAK3 (Homo sapiens, UniProt P52333); experiment: Inhibition of human wild type JAK3 using Poly(Ala,Glu,Lys,Tyr)6:2:5:1 as substrate preincubated for 2 hrs followed by ATP addition and measured every 2 mins for […] by spectrophotometric analysis
[10] = target: Mitogen-activated protein kinase 10 (Homo sapiens, UniProt P53779); experiment: Inhibition of human wild type JNK3 using ATF2 as substrate preincubated for 2 hrs followed by ATP addition and measured every 2 mins for […] by spectrophotometric analysis
[11] = target: Maternal embryonic leucine zipper kinase (Homo sapiens, UniProt Q14680); experiment: Inhibition of human wild type MELK using RBER-CHKtide as substrate preincubated for 2 hrs followed by ATP addition and measured every 2 mins for […] by spectrophotometric analysis
[12] = target: Myosin light chain kinase (Homo sapiens, UniProt Q32MK0); experiment: Inhibition of human wild type MLCK using RB-S6P as substrate preincubated for 2 hrs followed by ATP addition and measured every 2 mins for […] by spectrophotometric analysis
Chain of Myosin light chain kinase (Q32MK0 whole entry): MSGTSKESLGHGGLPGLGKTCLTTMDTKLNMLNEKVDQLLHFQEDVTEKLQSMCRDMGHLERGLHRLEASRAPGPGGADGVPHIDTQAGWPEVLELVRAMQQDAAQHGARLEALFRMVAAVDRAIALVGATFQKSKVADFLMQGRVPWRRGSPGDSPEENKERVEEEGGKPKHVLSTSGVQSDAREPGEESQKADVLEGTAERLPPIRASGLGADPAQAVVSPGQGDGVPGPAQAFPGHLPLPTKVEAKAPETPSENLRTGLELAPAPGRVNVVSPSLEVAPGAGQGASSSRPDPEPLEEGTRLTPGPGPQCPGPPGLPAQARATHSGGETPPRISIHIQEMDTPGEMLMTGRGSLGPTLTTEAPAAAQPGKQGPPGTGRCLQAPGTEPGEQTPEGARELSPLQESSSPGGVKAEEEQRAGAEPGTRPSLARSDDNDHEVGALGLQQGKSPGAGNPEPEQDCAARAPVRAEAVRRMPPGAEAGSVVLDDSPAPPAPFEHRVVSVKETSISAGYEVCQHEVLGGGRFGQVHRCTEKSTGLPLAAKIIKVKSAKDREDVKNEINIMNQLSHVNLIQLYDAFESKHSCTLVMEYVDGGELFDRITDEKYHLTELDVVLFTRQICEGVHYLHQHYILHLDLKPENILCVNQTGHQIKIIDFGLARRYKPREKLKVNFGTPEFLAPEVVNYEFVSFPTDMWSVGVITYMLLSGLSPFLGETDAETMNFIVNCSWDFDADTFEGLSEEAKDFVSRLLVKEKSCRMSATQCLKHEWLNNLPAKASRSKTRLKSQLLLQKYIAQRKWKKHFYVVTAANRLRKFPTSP

[13] = target: Serine/threonine-protein kinase Nek1 (Homo sapiens, UniProt Q96PY6); experiment: Inhibition of human wild type NEK1 using RBER-CHKtide as substrate preincubated for 2 hrs followed by ATP addition and measured every 2 mins for […] by spectrophotometric analysis
[14] = target: Serine/threonine-protein kinase pim-1 (Homo sapiens, UniProt P11309); experiment: Inhibition of human wild type PIM1 using RBER-GSK3(14to 27) as substrate preincubated for 2 hrs followed by ATP addition and measured every 2 mins for […] by spectrophotometric analysis
[15] = target: Serine/threonine-protein kinase pim-2 (Homo sapiens, UniProt Q9P1W9); experiment: Inhibition of human wild type PIM2 using RBER-GSK3(14to 27) as substrate preincubated for 2 hrs followed by ATP addition and measured every 2 mins for […] by spectrophotometric analysis
Chain of Serine/threonine-protein kinase pim-2 (Q9P1W9 whole entry): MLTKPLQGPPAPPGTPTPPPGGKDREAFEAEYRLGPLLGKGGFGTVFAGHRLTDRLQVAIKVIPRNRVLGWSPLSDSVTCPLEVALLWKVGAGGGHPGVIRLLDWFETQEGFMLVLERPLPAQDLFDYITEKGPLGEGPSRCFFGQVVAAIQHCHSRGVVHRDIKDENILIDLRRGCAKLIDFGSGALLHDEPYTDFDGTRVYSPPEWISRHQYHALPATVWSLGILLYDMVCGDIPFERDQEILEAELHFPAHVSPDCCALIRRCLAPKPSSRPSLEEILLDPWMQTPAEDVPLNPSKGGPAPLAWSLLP

[16] = target: Protein kinase C beta type (Homo sapiens, UniProt P05771); experiment: Inhibition of human wild type PKCbeta1 using 3xChocktide-PKC(19to 31) as substrate preincubated for 2 hrs followed by ATP addition and measured every 2 mins for […] by spectrophotometric analysis
Chain of Protein kinase C beta type (P05771 whole entry): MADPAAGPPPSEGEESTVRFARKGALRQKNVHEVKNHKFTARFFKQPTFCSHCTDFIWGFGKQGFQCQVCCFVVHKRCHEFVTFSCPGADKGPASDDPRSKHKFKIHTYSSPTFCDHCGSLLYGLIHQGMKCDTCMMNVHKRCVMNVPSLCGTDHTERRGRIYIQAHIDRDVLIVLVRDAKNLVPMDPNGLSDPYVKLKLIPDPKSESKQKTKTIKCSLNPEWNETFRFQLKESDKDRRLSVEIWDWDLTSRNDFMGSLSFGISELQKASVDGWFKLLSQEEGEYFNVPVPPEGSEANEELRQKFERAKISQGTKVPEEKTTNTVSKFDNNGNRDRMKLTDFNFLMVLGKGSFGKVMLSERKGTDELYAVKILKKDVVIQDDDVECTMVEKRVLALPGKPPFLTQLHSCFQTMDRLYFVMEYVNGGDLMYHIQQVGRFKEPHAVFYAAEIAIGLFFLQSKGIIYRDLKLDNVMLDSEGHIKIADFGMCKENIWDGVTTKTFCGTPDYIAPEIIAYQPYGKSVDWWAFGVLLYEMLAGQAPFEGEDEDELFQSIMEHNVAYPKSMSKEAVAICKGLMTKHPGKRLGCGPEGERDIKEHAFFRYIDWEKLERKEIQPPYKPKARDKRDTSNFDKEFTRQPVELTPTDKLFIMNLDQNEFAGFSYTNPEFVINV

[17] = target: Serine/threonine-protein kinase SIK2 (Homo sapiens, UniProt Q9H0K1); experiment: Inhibition of human wild type SIK2 using RBER-CHKtide as substrate preincubated for 2 hrs followed by ATP addition and measured every 2 mins for […] by spectrophotometric analysis
SRSF protein kinase 1 = SRSF protein kinase 1 (Homo sapiens, UniProt Q96SB4); experiment: Inhibition of human wild type SRPK1 using MBP as substrate preincubated for 2 hrs followed by ATP addition and measured every 2 mins for […] by spectrophotometric analysis
[18] = target: Tyrosine-protein kinase TXK (Homo sapiens, UniProt P42681); experiment: Inhibition of human wild type TXK using RBER-CHKtide as substrate preincubated for 2 hrs followed by ATP addition and measured every 2 mins for […] by spectrophotometric analysis
[19] = target: Non-receptor tyrosine-protein kinase TYK2 (Homo sapiens, UniProt P29597); experiment: Inhibition of human wild type TYK2 using Poly(Ala,Glu,Lys,Tyr)6:2:5:1 as substrate preincubated for 2 hrs followed by ATP addition and measured every 2 mins for […] by spectrophotometric analysis
[20] = target: Serine/threonine-protein kinase ULK1 (Homo sapiens, UniProt O75385); experiment: Inhibition of human wild type ULK1 using Casein as substrate preincubated for 2 hrs followed by ATP addition and measured every 2 mins for […] by spectrophotometric analysis
[21] = target: Tyrosine-protein kinase ZAP-70 (Homo sapiens, UniProt P43403); experiment: Inhibition of human wild type ZAP70 using PolyEY as substrate preincubated for 2 hrs followed by ATP addition and measured every 2 mins for […] by spectrophotometric analysis
Chain of Tyrosine-protein kinase ZAP-70 (P43403 whole entry): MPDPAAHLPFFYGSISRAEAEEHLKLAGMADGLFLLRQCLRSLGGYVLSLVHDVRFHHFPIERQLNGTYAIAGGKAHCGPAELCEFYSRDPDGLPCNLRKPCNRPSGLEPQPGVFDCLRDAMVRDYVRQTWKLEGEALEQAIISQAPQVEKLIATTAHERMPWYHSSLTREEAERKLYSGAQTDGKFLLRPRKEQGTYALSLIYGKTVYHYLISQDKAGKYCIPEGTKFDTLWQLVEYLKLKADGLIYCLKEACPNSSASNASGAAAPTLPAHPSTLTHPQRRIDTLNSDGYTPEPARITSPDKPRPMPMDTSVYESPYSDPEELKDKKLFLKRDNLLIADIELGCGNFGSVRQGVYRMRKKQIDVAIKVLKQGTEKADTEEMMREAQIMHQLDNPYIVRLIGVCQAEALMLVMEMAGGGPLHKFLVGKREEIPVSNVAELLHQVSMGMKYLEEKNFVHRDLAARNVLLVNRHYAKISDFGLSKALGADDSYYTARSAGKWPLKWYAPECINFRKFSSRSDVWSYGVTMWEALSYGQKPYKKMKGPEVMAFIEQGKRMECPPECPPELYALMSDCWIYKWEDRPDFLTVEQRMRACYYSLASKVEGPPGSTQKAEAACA

[22] = target: T1, Tyrosine-protein kinase ABL1 (Homo sapiens, UniProt P00519); conditions: Sf9, time 2.0 hrs
[23] = target: T1, Tyrosine-protein kinase ABL1; conditions: Sf9, time 2.0 hrs; remark: listed apart in the source
[24] = tested on: Tyrosine-protein kinase ABL1 (Homo sapiens), P00519 [T315I]; conditions: time 2.0 hrs
BaF3 = experiment: cells; conditions: Mus musculus, BaF3, 72 h

Chain of Tyrosine-protein kinase Mer (Q12866 whole entry): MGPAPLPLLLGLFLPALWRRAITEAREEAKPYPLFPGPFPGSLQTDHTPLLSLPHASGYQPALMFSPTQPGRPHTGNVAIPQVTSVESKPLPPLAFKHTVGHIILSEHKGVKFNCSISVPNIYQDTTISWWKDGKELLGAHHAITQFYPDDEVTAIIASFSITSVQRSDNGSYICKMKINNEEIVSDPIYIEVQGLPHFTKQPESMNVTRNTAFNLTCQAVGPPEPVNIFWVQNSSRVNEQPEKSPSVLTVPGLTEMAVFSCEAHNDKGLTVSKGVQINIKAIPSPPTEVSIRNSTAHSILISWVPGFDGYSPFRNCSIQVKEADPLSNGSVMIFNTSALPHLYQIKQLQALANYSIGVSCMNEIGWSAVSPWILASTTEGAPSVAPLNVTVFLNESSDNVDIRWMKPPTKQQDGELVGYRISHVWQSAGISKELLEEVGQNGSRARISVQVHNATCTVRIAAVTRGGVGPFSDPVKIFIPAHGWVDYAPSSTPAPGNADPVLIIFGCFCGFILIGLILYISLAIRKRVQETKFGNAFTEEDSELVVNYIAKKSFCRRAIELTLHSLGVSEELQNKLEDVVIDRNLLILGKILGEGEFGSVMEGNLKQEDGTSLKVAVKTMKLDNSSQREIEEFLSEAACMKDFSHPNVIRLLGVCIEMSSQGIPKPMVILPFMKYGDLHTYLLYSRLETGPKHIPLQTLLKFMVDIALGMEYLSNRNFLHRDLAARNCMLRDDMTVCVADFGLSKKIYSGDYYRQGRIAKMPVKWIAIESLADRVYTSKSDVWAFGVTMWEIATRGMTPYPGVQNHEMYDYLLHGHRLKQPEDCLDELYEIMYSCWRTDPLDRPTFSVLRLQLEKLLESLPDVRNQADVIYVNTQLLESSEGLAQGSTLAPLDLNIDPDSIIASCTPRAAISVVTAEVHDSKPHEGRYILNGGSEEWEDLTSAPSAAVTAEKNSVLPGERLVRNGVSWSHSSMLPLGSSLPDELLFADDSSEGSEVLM

- IC50 [1]: 7.6 nM
- IC50 [2]: 25 nM
- IC50 [3]: 330 nM
- IC50 [4]: 620 nM
- IC50 [5]: 450 nM
- IC50 (Aurora kinase A): > 5 µM
- IC50 (Aurora kinase B): > 1000 nM
- IC50 (Aurora kinase C): > 1000 nM
- IC50 [6]: > 1000 nM
- IC50 [7]: > 1000 nM
- IC50 [8]: > 1000 nM
- IC50 [9]: > 1000 nM
- IC50 [10]: > 1000 nM
- IC50 [11]: > 1000 nM
- IC50 [12]: > 1000 nM
- IC50 [13]: > 1000 nM
- IC50 [14]: > 1000 nM
- IC50 [15]: > 1000 nM
- IC50 [16]: > 1000 nM
- IC50 [17]: > 1000 nM
- IC50 (SRSF protein kinase 1): > 1000 nM
- IC50 [18]: > 1000 nM
- IC50 [19]: > 1000 nM
- IC50 [20]: > 1000 nM
- IC50 [21]: > 1000 nM
- Kdiss [22]: 0.002 min⁻¹
- T1/2 [23]: 6.53 h
- T1/2 [24]: 8.97 h
- IC50 (BaF3): 6 nM
SMILES: CNC(=O)c1cc(Oc2ccc(NC(=O)Nc3cc(C(C)(C)C)nn3-c3ccc4ncccc4c3)c(F)c2)ccn1 [REBASTINIB]
